Read-outs that look alike come from different tables or passages of the source.
Assays:
[1] = test system: Ovcar3 (Muc16+) cells; test: In vitro cytotoxicity assay (CCK8 viability), Ovcar3 cells; type: cell-based
Method: (§1) In this Example, the ability of various antibody-drug conjugates or their associated payloads to kill antigen-expressing tumor cells in vitro was assessed.
(§2) Ovcar3 (Muc16+) or C4-2 (PSMA+) cells were seeded in 96 well plates at 3000 (C42) cells per well in complete growth media and grown overnight. For cell viability curves, serially diluted conjugates or payloads were added to the cells at final concentrations ranging from 300 nM to 5 pM and incubated for 3 days. To measure viability, cells were incubated with CCK8 (Dojindo) for the final 1-3 hours and the absorbance at 450 nm (OD450) was determined on a Victor (Perkin Elmer). Background OD450 levels determined from digitonin ([…]) treated cells were subtracted from all wells and viability is expressed as a percentage of the untreated controls. IC50 values were determined from a four-parameter logistic equation over a 10-point response curve (GraphPad Prism). All conjugate curves and IC50 values are corrected for payload equivalents.

[2] = test system: T47D ductal carcinoma line (PRLR+); test: In vitro cytotoxicity assay (CellTiter-Glo), T47D cells; type: cell-based, human; details: for IC50: 5 days; for maximum percent killing: T47D cells; for maximum percent killing / T47D % kill: highest concentration tested
Method: The present example provides cytotoxicity assays for conjugates provided herein. To evaluate the ability of anti-PRLR antibodies conjugated with 63, 60, 77, and 78 to kill a PRLR expressing cell line, an in vitro cytotoxicity assay using a T47D ductal carcinoma line (ATCC, #HTB-133), which was previously determined to express >27,000 copies of human PRLR at its cell surface, was utilized.
For the assay, T47D cells were seeded onto white 96 well plates at 2,000 cells/well in media containing DMEM supplemented with 10% FBS, NEAA, and pencillin/streptomycinin (complete media). They were grown overnight at 37° C. in 5% CO2. To determine cell viability curves, the following day antibody drug conjugates, unconjugated antibodies, or free payloads were added to the cells at final serial dilutions ranging from 100 nM to 0.01 nM in complete medium and then incubated for an additional 5 days. Luciferase activity was detected after the addition of CellTiter-Glo™ reagent (Promega, G7571) to each well, which contains reagents to lyse the remaining viable cells to release their ATP, ATPase inhibitors to prevent degradation of the ATP, as well as luciferin and luciferase to catalyse the luminescent reaction. Viable cells prior to addition of CellTiter-Glo will be the only source of ATP since the dead cells in culture will not synthesis ATP and any of their released ATP will be destroyed via endogenous ATPases. Relative light units (RLUs) were measured on a Victor luminometer (PerkinElmer) and the results were determined using a four-parameter logistic equation over a 10-point response curve (GraphPad Prism). All measured values and calculated IC50 values were corrected for payload equivalents. All IC50 values are expressed in nM concentration and percent kill is reported for the highest concentration tested.

[3] = test system: C4-2 (PSMA+) cells; test: In vitro cytotoxicity assay (CCK8 viability), C4-2 cells; type: cell-based
Method: as §1, §2

[4] = Ovcar-3 cells, 3 days, conjugate values corrected for payload equivalents, read-out: IC50
[5] = Table 2, payloads only, read-out: Ovcar3 IC50
[6] = Table 5, payloads only, read-out: Ovcar3 IC50
[7] = corrected for payload equivalents, read-out: IC50 (cytotoxicity of T47D cells)
[8] = C4-2 cells, 3 days, conjugate values corrected for payload equivalents, read-out: IC50
[9] = Table 2, payloads only, read-out: C4-2 IC50
[10] = Table 5, payloads only, read-out: C4-2 IC50

Row | Structure (SMILES) | IC50 [1, 4] [nM] | Ovcar3 % kill ([1]; Table 2, payloads only) [%] | IC50 [1, 5] [nM] | Ovcar3 % kill ([1]; Table 5, payloads only) [%] | IC50 [1, 6] [nM] | IC50 [2, 7] [nM] | maximum percent killing [2] [%] | IC50 [3, 8] [nM] | C4-2 % kill ([3]; Table 2, payloads only) [%] | IC50 [3, 9] [nM] | C4-2 % kill ([3]; Table 5, payloads only) [%] | IC50 [3, 10] [nM] | T47D % kill ([2]; Table 5, payloads only) [%] | IC50 ([2]; Table 5, payloads only, read-out: T47D IC50) [nM]
1 | COc1cc2cc(c1Cl)N(C)C(=O)C[C@H](OC(=O)[C@H](C)N(C)C(=O)c1ccc(N)cc1)[C@]1(C)O[C@H]1[C@H](C)[C@@H]1C[C@@](O)(NC(=O)O1)[C@H](OC)/C=C/C=C(\C)C2 [Compound 27, Maytansin-N-methyl-L-alanine-4-aminobenzamide] | 0.06 | 92 | 0.09 | 92 | 0.09 | 0.1 | 67 | 0.2 | 84 | 0.2 | 84 | 0.2 |  | 
2 | COc1cc2cc(c1Cl)N(C)C(=O)C[C@H](OC(=O)[C@H](C)N(C)C(=O)c1ccc(N)cc1F)[C@]1(C)O[C@H]1[C@H](C)[C@@H]1C[C@@](O)(NC(=O)O1)[C@H](OC)/C=C/C=C(\C)C2 [Compound 29, Maytansin-N-methyl-L-alanine-(2-fluoro-4-amino)benzamide] |  | 93 | 0.13 | 93 | 0.13 | 0.07 | 67 |  | 83 | 0.27 | 83 | 0.27 | 67 | 
3 | COc1cc2cc(c1Cl)N(C)C(=O)C[C@H](OC(=O)[C@H](C)N(C)C(=O)c1ccc(N)cc1C(F)(F)F)[C@]1(C)O[C@H]1[C@H](C)[C@@H]1C[C@@](O)(NC(=O)O1)[C@H](OC)/C=C/C=C(\C)C2 [Compound 31, Maytansin-N-methyl-L-alanine-(2-trifluoromethyl-4-amino)benzamide] |  | 93 | 0.04 | 93 | 0.04 |  |  |  | 82 | 0.1 | 82 | 0.1 |  | 
4 | COc1cc(N)ccc1C(=O)N(C)[C@@H](C)C(=O)O[C@H]1CC(=O)N(C)c2cc(cc(OC)c2Cl)C/C(C)=C/C=C/[C@@H](OC)[C@@]2(O)C[C@H](OC(=O)N2)[C@@H](C)[C@@H]2O[C@@]12C [Compound 33, Maytansin-N-methyl-L-alanine-(2-methoxy-4-amino)benzamide] | 0.11 | 93 | 0.2 | 93 | 0.2 |  |  | 0.55 | 86 | 0.45 | 86 | 0.45 |  | 
5 | COc1cc2cc(c1Cl)N(C)C(=O)C[C@H](OC(=O)[C@H](C)N(C)C(=O)c1ccc(N)c(C(F)(F)F)c1)[C@]1(C)O[C@H]1[C@H](C)[C@@H]1C[C@@](O)(NC(=O)O1)[C@H](OC)/C=C/C=C(\C)C2 [Compound 35, Maytansin-N-methyl-L-alanine-N-(3-trifluoromethyl-4-amino)benzamide] |  | 93 | < 0.01 | 93 | < 0.01 |  |  |  | 84 | 0.004 | 84 | 0.004 |  | 
6 | COc1cc2cc(c1Cl)N(C)C(=O)C[C@H](OC(=O)[C@H](C)N(C)C(=O)c1cc(F)c(N)cc1Cl)[C@]1(C)O[C@H]1[C@H](C)[C@@H]1C[C@@](O)(NC(=O)O1)[C@H](OC)/C=C/C=C(\C)C2 [Compound 37, Maytansin-N-methyl-L-alanine-N-(2-chloro-4-amino-5-fluoro)benzamide] |  | 94 | < 0.01 | 94 | < 0.01 |  |  |  | 86 | 0.01 | 86 | 0.01 |  | 
7 | COc1cc(C(=O)N(C)[C@@H](C)C(=O)O[C@H]2CC(=O)N(C)c3cc(cc(OC)c3Cl)C/C(C)=C/C=C/[C@@H](OC)[C@@]3(O)C[C@H](OC(=O)N3)[C@@H](C)[C@@H]3O[C@@]23C)ccc1N [Compound 49, Maytansin-N-methyl-L-alanine-(3-methoxy-4-amino)benzamide] |  |  |  |  |  | 0.03 | 69 |  |  |  |  |  | 70 | 0.06

From patent publication US12297207B2, “Maytansinoid derivatives, conjugates thereof, and methods of use” (priority 2015, dated 2025)
